Laboratory results reported in publication PMC9081605, “A High-Throughput Toxicity Screen of 42 Per- and Polyfluoroalkyl Substances (PFAS) and Functional Assessment of Migration and Gene Expression in Human Placental Trophoblast Cells” (Frontiers in Toxicology, 2022).
Entries after “also recorded” stand apart in the source; their conditions may differ.

Test system: JEG-3 cells
Test: Gene expression, custom NanoString code set of 46 genes
Assay type: cell-based, human
Description: JEG-3 cells were seeded at a density of 80,000 cells per well in six well plates and allowed to adhere overnight (24 h). The following day, media was removed and replaced with exposure media, then returned to the incubator for 24 h. The test compounds included non-cytotoxic concentrations of PFOA (0, 1, and 100 µM) and GenX (0, 3, 300 µM). These test compounds were selected a priori due to their high public health relevance. Each 6 well plate contained the three concentrations for either PFOA or GenX, with each condition in technical duplicate. Plates containing these PFOA or GenX exposure conditions were replicated three times (N = 3). After 24 h, exposure media was aspirated and cells were washed in ice cold 1xPBS, which was then aspirated. Each well received 500 µl of TRIzol reagent (Thermo Fisher Scientific, MA, United States) and cells were harvested in the TRIzol using a cell scraper. Technical duplicate wells within a plate were combined to generate a single sample of ∼1,000 µl. RNA was isolated from the resulting cellular homogenate using RNeasy Mini Kits (Qiagen, Hilden, Germany). Isolated RNA quality was validated and concentration determined using a NanoDrop 2000 (Thermo Fisher Scientific, MA, United States). 100 ng of mRNA from each sample was then analyzed using a custom gene expression code set (NanoString, Seattle, WA, United States). The custom code set included 46 genes selected for their downstream involvement in placental development (e.g., WNT4), endocrine signaling (e.g., CYP19A1), fetal growth/nutrient sensing (e.g., IGF2), inflammation (e.g., IL6), oxidative stress (e.g., SOD1, GPX1), and xenobiotic transport/metabolism (e.g., ABCG2, MRP3).
Gene expression data were quantified using the nCounter Digital Analyzer (NanoString, Seattle, WA, United States) and raw and adjusted counts were generated with nSolver (v4.0) software (NanoString, Seattle, WA, United States). Data were adjusted utilizing the manufacturer’s positive and negative experimental control probes, as well as housekeeping genes (ACTA2, ACTB, B2M, LDHA, RNA18S5, and ROLYR2L). All samples passed nSolver’s initial QA/QC controls and replicates were very well correlated with R ^2 values greater than 0.99. Adjusted data were then imported into Partek v7.0 (St. Louis, MO, United States), log2 transformed and quantile normalized for further QA/QC and statistical analyses. Genes with mRNA counts below the detection threshold of 20 were removed due to suboptimal probe hybridization (N = 2 genes for GenX; GH2 and IGFBP5). Fold change values were analyzed by ANOVA with post hoc false discovery rate adjustment (FDR) of p < 0.1. Normalized gene expression values were visualized using pheatmap with Euclidean clustering of genes and concentration groups ([Kolde and Kolde, 2015]).

Structure (SMILES): O=C(O)C(F)(F)C(F)(F)C(F)(F)C(F)(F)C(F)(F)C(F)(F)C(F)(F)F [Perfluorooctanoic acid]
- 11BHSD2 gene expression, fold change over untreated control (1 µM, 24 h): -1.06
- 17BHSD1 gene expression, fold change over untreated control (1 µM, 24 h): -1.02
- ABCG2 gene expression, fold change over untreated control (1 µM, 24 h): -1.07
- AHR gene expression, fold change over untreated control (1 µM, 24 h): -1.09
- AHRR gene expression, fold change over untreated control (1 µM, 24 h): significantly altered
- CAT gene expression, fold change over untreated control (1 µM, 24 h): 1.02
- CGB5 gene expression, fold change over untreated control (1 µM, 24 h): 1.00
- COX2 gene expression, fold change over untreated control (1 µM, 24 h): -1.11
- CTNNB1 gene expression, fold change over untreated control (1 µM, 24 h): 1.00
- CYP1A1 gene expression, fold change over untreated control (1 µM, 24 h): 1.05
- CYP3A5 gene expression, fold change over untreated control (1 µM, 24 h): 1.28
- CYP3A7 gene expression, fold change over untreated control (1 µM, 24 h): 1.15
- CYP19A1 gene expression, fold change over untreated control (1 µM, 24 h): -1.05
- EGFR gene expression, fold change over untreated control (1 µM, 24 h): 1.07
- ENG gene expression, fold change over untreated control (1 µM, 24 h): 1.02
- ESRRA gene expression, fold change over untreated control (1 µM, 24 h): 1.00
- ESRRG gene expression, fold change over untreated control (1 µM, 24 h): -1.04
- GH2 gene expression, fold change over untreated control (1 µM, 24 h): 1.02
- GHR gene expression, fold change over untreated control (1 µM, 24 h): 1.00
- GPER1 gene expression, fold change over untreated control (1 µM, 24 h): 1.02
- GPX1 gene expression, fold change over untreated control (1 µM, 24 h): 1.00
- HIF1A gene expression, fold change over untreated control (1 µM, 24 h): 1.00
- IGF2 gene expression, fold change over untreated control (1 µM, 24 h): 1.00
- IGFBP5 gene expression, fold change over untreated control (1 µM, 24 h): -1.13
- IGFR1 gene expression, fold change over untreated control (1 µM, 24 h): 1.03
- IGFR2 gene expression, fold change over untreated control (1 µM, 24 h): 1.05
- IL6 gene expression, fold change over untreated control (1 µM, 24 h): -1.05
- MRP1 gene expression, fold change over untreated control (1 µM, 24 h): -1.03
- MRP2 gene expression, fold change over untreated control (1 µM, 24 h): 1.09
- MRP3 gene expression, fold change over untreated control (1 µM, 24 h): -1.08
- NFKB1 gene expression, fold change over untreated control (1 µM, 24 h): 1.00
- NFKB2 gene expression, fold change over untreated control (1 µM, 24 h): 1.00
- NR3C1 gene expression, fold change over untreated control (1 µM, 24 h): 1.09
- PGF gene expression, fold change over untreated control (1 µM, 24 h): 1.00
- PMM1 gene expression, fold change over untreated control (1 µM, 24 h): -1.03
- ROLYR2L gene expression, fold change over untreated control (1 µM, 24 h): 1.00
- SLC2A1 gene expression, fold change over untreated control (1 µM, 24 h): -1.02
- SOD1 gene expression, fold change over untreated control (1 µM, 24 h): 1.00
- TGFB1 gene expression, fold change over untreated control (1 µM, 24 h): 1.00
- VEGFA gene expression, fold change over untreated control (1 µM, 24 h): 1.00
- VEGFB gene expression, fold change over untreated control (1 µM, 24 h): -1.00
- WNT4 gene expression, fold change over untreated control (1 µM, 24 h): 1.25
- WNT6 gene expression, fold change over untreated control (1 µM, 24 h): -1.04
- WNT7B gene expression, fold change over untreated control (1 µM, 24 h): 1.06
- mTOR gene expression, fold change over untreated control (1 µM, 24 h): 1.00
- 11BHSD2 gene expression, fold change over untreated control (100 µM, 24 h): -1.03
- AHR gene expression, fold change over untreated control (100 µM, 24 h): 1.08
- AHRR gene expression, fold change over untreated control (100 µM, 24 h): 1.00
- CAT gene expression, fold change over untreated control (100 µM, 24 h): -1.06
- CGB5 gene expression, fold change over untreated control (100 µM, 24 h): -1.15
- COX2 gene expression, fold change over untreated control (100 µM, 24 h): 1.03
- CTNNB1 gene expression, fold change over untreated control (100 µM, 24 h): 1.00
- CYP1A1 gene expression, fold change over untreated control (100 µM, 24 h): 1.18
- CYP2E1 gene expression, fold change over untreated control (100 µM, 24 h): 1.00
- CYP3A5 gene expression, fold change over untreated control (100 µM, 24 h): -1.18
- CYP3A7 gene expression, fold change over untreated control (100 µM, 24 h): -1.22
- CYP19A1 gene expression, fold change over untreated control (100 µM, 24 h): 1.00
- EGFR gene expression, fold change over untreated control (100 µM, 24 h): -1.07
- ENG gene expression, fold change over untreated control (100 µM, 24 h): -1.19
- ESRRA gene expression, fold change over untreated control (100 µM, 24 h): 1.00
- ESRRG gene expression, fold change over untreated control (100 µM, 24 h): -1.16
- GH2 gene expression, fold change over untreated control (100 µM, 24 h): 1.12
- GHR gene expression, fold change over untreated control (100 µM, 24 h): 1.15
- GPER1 gene expression, fold change over untreated control (100 µM, 24 h): -1.05
- GPX1 gene expression, fold change over untreated control (100 µM, 24 h): non-significant trend of decreased expression
- HIF1A gene expression, fold change over untreated control (100 µM, 24 h): 1.00
- IGF2 gene expression, fold change over untreated control (100 µM, 24 h): -1.00
- IGFBP5 gene expression, fold change over untreated control (100 µM, 24 h): -1.02
- IGFR1 gene expression, fold change over untreated control (100 µM, 24 h): 1.08
- IGFR2 gene expression, fold change over untreated control (100 µM, 24 h): significantly altered
- IL6 gene expression, fold change over untreated control (100 µM, 24 h): 1.10
- MRP1 gene expression, fold change over untreated control (100 µM, 24 h): -1.06
- MRP2 gene expression, fold change over untreated control (100 µM, 24 h): -1.03
- MRP3 gene expression, fold change over untreated control (100 µM, 24 h): -1.12
- NFKB1 gene expression, fold change over untreated control (100 µM, 24 h): 1.03
- NFKB2 gene expression, fold change over untreated control (100 µM, 24 h): 1.00
- NR3C1 gene expression, fold change over untreated control (100 µM, 24 h): 1.00
- PGF gene expression, fold change over untreated control (100 µM, 24 h): -1.00
- PMM1 gene expression, fold change over untreated control (100 µM, 24 h): 1.07
- ROLYR2L gene expression, fold change over untreated control (100 µM, 24 h): 1.00
- SLC2A1 gene expression, fold change over untreated control (100 µM, 24 h): -1.11
- SOD1 gene expression, fold change over untreated control (100 µM, 24 h): 1.00
- TGFB1 gene expression, fold change over untreated control (100 µM, 24 h): -1.18
- VEGFA gene expression, fold change over untreated control (100 µM, 24 h): 1.08
- VEGFB gene expression, fold change over untreated control (100 µM, 24 h): -1.04
- WNT4 gene expression, fold change over untreated control (100 µM, 24 h): significantly altered
- WNT6 gene expression, fold change over untreated control (100 µM, 24 h): -1.02
- WNT7B gene expression, fold change over untreated control (100 µM, 24 h): 1.06
- mTOR gene expression, fold change over untreated control (100 µM, 24 h): 1.00
- 17BHSD1 gene expression, fold change over untreated control (100 µM, 24 h, listed as PFOA): significantly altered; also recorded: significant increase
- ABCG2 gene expression, fold change over untreated control (100 µM, 24 h, listed as PFOA): upregulation; also recorded: significantly altered
- lowest concentration inducing significant dysregulated expression of placental genes (after 24 h of exposure): 1 µM
